According to PubChem BioAssay (NCI):
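GI50: concentration for 50% inhibition of growth. TGI denotes the concentration required for complete inhibition of growth.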

Columns and labels:
Test in all cases: inhibition of tumour cell growth, NCI panel, 384-well format
BT-549 breast = system: BT-549 breast
DU-145 prostate = system: DU-145 prostate
HCC-2998 colon = system: HCC-2998 colon
HT29 colon = system: HT29 colon
LOX IMVI melanoma = system: LOX IMVI melanoma
MOLT-4 leukemia = system: MOLT-4 leukemia
NCI-H23 lung = system: NCI-H23 lung
OVCAR-8 ovarian = system: OVCAR-8 ovarian
PC-3 prostate = system: PC-3 prostate
SK-OV-3 ovarian = system: SK-OV-3 ovarian
SN12C renal = system: SN12C renal
TK-10 renal = system: TK-10 renal
UACC-62 melanoma = system: UACC-62 melanoma

## C=CC(=O)N1CCN(CCCn2c(=O)c(-c3c(Cl)c(OC)cc(OC)c3Cl)cc3cnc(NC)nc32)CC1
BT-549 breast
  GI50: 0.369 µM
  TGI: 3.1 µM
DU-145 prostate
  GI50: 4.02 µM
  TGI: 18.1 µM
HCC-2998 colon
  GI50: 9.16 µM
  TGI: 22 µM
HT29 colon
  GI50: 4.61 µM
  TGI: 16.8 µM
LOX IMVI melanoma
  GI50: 2.63 µM
  TGI: 15.6 µM
MOLT-4 leukemia
  GI50: 0.689 µM
  TGI: 1.96 µM
NCI-H23 lung
  GI50: 3.72 µM
  TGI: 15.3 µM
OVCAR-8 ovarian
  GI50: 5.9 µM
  TGI: 19.2 µM
PC-3 prostate
  GI50: 3.56 µM
  TGI: 12.4 µM
SK-OV-3 ovarian
  GI50: 1.1 µM
  TGI: 9.48 µM
SN12C renal
  GI50: 2.36 µM
  TGI: 12.2 µM
TK-10 renal
  GI50: 5.98 µM
  TGI: 19.5 µM
UACC-62 melanoma
  GI50: 1.9 µM
  TGI: 11.8 µM
